Test results taken from the supplement of paper PMC10307832.

compound: CC1CC(=O)N(C2=CN=C(N=C2N1C3CCCC3)NC4=C(C=C(C=C4)C(=O)NC5CCN(CC5)C)OC)C [NPK76-II-72-1] + CC1(C)CCC(c2ccc(Cl)cc2)=C(CN2CCN(c3ccc(C(=O)NS(=O)(=O)c4ccc(N[C@H](CCN5CCOCC5)CSc5ccccc5)c(S(=O)(=O)C(F)(F)F)c4)cc3)CC2)C1 [Navitoclax] (partner 0.5 µM); test: relative viability (nuclei count vs DMSO), 5 days (fraction); higher = more cells survive; settings: first compound 0.01 µM
How it was run: (§1)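 For relative viability, nuclei counts in treated wells were divided by those in vehicle wells. Lung cancer cell lines had been pin-tool dosed in 1536-well plates the day after seeding and cultured for 5 days, then fixed and stained in one step (final 0.05% Triton X-100, 1% formaldehyde, 1 ug/ml Hoechst) and imaged at 4×. Doses were one drug alone or a fixed anchor-drug dose plus five library-drug doses (not always all listed) in √10 steps, and values are duplicate-plate medians.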

First: NCI-H1355
Second: NCI-H3122
The relative viability of the first is lower: 0.881 for the first, 1.01 for the second.

Going from NCI-H1437 to NCI-H1755, the relative viability falls from 1.17 to 0.942.

Going from NCI-H2023 to HCC-15, the relative viability falls from 0.943 to 0.692.

Going from NCI-H1793 to PC-14, the relative viability rises from 0.399 to 1.

Going from EKVX to LC-2-ad, the relative viability falls from 0.909 to 0.469.

First: NCI-H1944
Second: NCI-H1975
The relative viability of the first is higher: 0.997 for the first, 0.956 for the second.

Going from RERF-LC-KJ to PC-3 [JPC-3], the relative viability falls from 0.878 to 0.742.

same assay, conditions: first compound 0.03162 µM

First: NCI-H1355
Second: NCI-H3122
The relative viability of the first is lower: 0.959 for the first, 0.988 for the second.

Going from NCI-H1437 to NCI-H1755, the relative viability falls from 1.11 to 1.01.

Compared with NCI-H2023, HCC-15 is lower in relative viability: 0.947 for the first, 0.739 for the second.

Compared with NCI-H1793, PC-14 is higher in relative viability: 0.642 for the first, 1.06 for the second.

Going from EKVX to LC-2-ad, the relative viability falls from 1.03 to 0.501.

Going from NCI-H1944 to NCI-H1975, the relative viability rises from 1.02 to 1.05.

First: RERF-LC-KJ
Second: PC-3 [JPC-3]
The relative viability of the first is higher: 0.925 for the first, 0.806 for the second.

same assay, conditions: first compound 0.1 µM

Compared with NCI-H1355, NCI-H3122 is higher in relative viability: 0.928 for the first, 1 for the second.

Going from NCI-H1437 to NCI-H1755, the relative viability falls from 0.967 to 0.953.

First: NCI-H2023
Second: HCC-15
The relative viability of the first is higher: 0.969 for the first, 0.662 for the second.

Compared with NCI-H1793, PC-14 is higher in relative viability: 0.477 for the first, 1.03 for the second.

Compared with EKVX, LC-2-ad is lower in relative viability: 0.865 for the first, 0.599 for the second.

Going from NCI-H1944 to NCI-H1975, the relative viability falls from 1.05 to 1.04.

Going from RERF-LC-KJ to PC-3 [JPC-3], the relative viability falls from 1.17 to 0.735.

same assay, conditions: first compound 0.3162 µM

Compared with NCI-H1355, NCI-H3122 is higher in relative viability: 0.871 for the first, 1.05 for the second.

Compared with NCI-H1437, NCI-H1755 is higher in relative viability: 0.978 for the first, 0.989 for the second.

Going from NCI-H2023 to HCC-15, the relative viability falls from 0.923 to 0.686.

Going from NCI-H1793 to PC-14, the relative viability rises from 0.302 to 0.948.

Going from EKVX to LC-2-ad, the relative viability falls from 0.648 to 0.395.

First: NCI-H1944
Second: NCI-H1975
The relative viability of the first is lower: 0.971 for the first, 0.993 for the second.

Compared with RERF-LC-KJ, PC-3 [JPC-3] is lower in relative viability: 0.851 for the first, 0.672 for the second.

same assay, conditions: first compound 1 µM

Compared with NCI-H1355, NCI-H3122 is higher in relative viability: 0.993 for the first, 1.02 for the second.

Compared with NCI-H1437, NCI-H1755 is lower in relative viability: 1.13 for the first, 1.02 for the second.

Compared with NCI-H2023, HCC-15 is lower in relative viability: 1.01 for the first, 0.804 for the second.

Compared with NCI-H1793, PC-14 is higher in relative viability: 0.41 for the first, 1.07 for the second.

Going from EKVX to LC-2-ad, the relative viability falls from 1.13 to 0.541.

First: NCI-H1944
Second: NCI-H1975
The relative viability of the first is lower: 1.06 for the first, 1.26 for the second.

Compared with RERF-LC-KJ, PC-3 [JPC-3] is lower in relative viability: 1.14 for the first, 0.848 for the second.

compound: CC[C@@H]1C(=O)N(C)c2cnc(Nc3ccc(C(=O)NC4CCN(C)CC4)cc3OC)nc2N1C1CCCC1 [BI-2536] + Nc1nc2[nH]cc(CCc3ccc(C(=O)N[C@@H](CCC(=O)O)C(=O)O)cc3)c2c(=O)[nH]1 [Pemetrexed] (partner 0.2 µM); test: as above; settings: first compound 0.01 µM
How it was run: as §1

First: NCI-H1355
Second: NCI-H3122
The relative viability of the first is higher: 1.04 for the first, 0.212 for the second.

Compared with NCI-H1437, NCI-H1755 is higher in relative viability: 0.321 for the first, 0.456 for the second.

First: NCI-H2023
Second: HCC-15
The relative viability of the first is lower: 0.225 for the first, 0.228 for the second.

Going from NCI-H1793 to PC-14, the relative viability falls from 0.876 to 0.15.

First: EKVX
Second: LC-2-ad
The relative viability of the first is higher: 0.389 for the first, 0.281 for the second.

Compared with NCI-H1944, NCI-H1975 is lower in relative viability: 0.631 for the first, 0.297 for the second.

Compared with RERF-LC-KJ, PC-3 [JPC-3] is higher in relative viability: 0.46 for the first, 1.23 for the second.

same assay, conditions: first compound 0.03162 µM

Compared with NCI-H1355, NCI-H3122 is lower in relative viability: 1 for the first, 0.171 for the second.

Going from NCI-H1437 to NCI-H1755, the relative viability rises from 0.288 to 0.371.

Going from NCI-H2023 to HCC-15, the relative viability rises from 0.197 to 0.211.

Going from NCI-H1793 to PC-14, the relative viability falls from 1.04 to 0.14.

Going from EKVX to LC-2-ad, the relative viability falls from 0.403 to 0.234.

Going from NCI-H1944 to NCI-H1975, the relative viability falls from 0.649 to 0.276.

Compared with RERF-LC-KJ, PC-3 [JPC-3] is higher in relative viability: 0.46 for the first, 1.04 for the second.

same assay, conditions: first compound 0.1 µM

Compared with NCI-H1355, NCI-H3122 is lower in relative viability: 0.899 for the first, 0.159 for the second.

Going from NCI-H1437 to NCI-H1755, the relative viability rises from 0.267 to 0.295.

First: NCI-H2023
Second: HCC-15
The relative viability of the first is lower: 0.124 for the first, 0.197 for the second.

Compared with NCI-H1793, PC-14 is lower in relative viability: 0.197 for the first, 0.132 for the second.

Compared with EKVX, LC-2-ad is lower in relative viability: 0.326 for the first, 0.171 for the second.

First: NCI-H1944
Second: NCI-H1975
The relative viability of the first is higher: 0.425 for the first, 0.22 for the second.

Compared with RERF-LC-KJ, PC-3 [JPC-3] is higher in relative viability: 0.31 for the first, 0.319 for the second.

same assay, conditions: first compound 0.3162 µM

Going from NCI-H1355 to NCI-H3122, the relative viability falls from 0.211 to 0.129.

First: NCI-H1437
Second: NCI-H1755
The relative viability of the first is lower: 0.227 for the first, 0.359 for the second.

First: NCI-H2023
Second: HCC-15
The relative viability of the first is lower: 0.0926 for the first, 0.179 for the second.

Compared with NCI-H1793, PC-14 is lower in relative viability: 0.171 for the first, 0.0335 for the second.

Compared with EKVX, LC-2-ad is lower in relative viability: 0.194 for the first, 0.165 for the second.

Going from NCI-H1944 to NCI-H1975, the relative viability falls from 0.18 to 0.169.

First: RERF-LC-KJ
Second: PC-3 [JPC-3]
The relative viability of the first is lower: 0.186 for the first, 0.299 for the second.

same assay, conditions: first compound 1 µM

Compared with NCI-H1355, NCI-H3122 is lower in relative viability: 0.174 for the first, 0.121 for the second.

Going from NCI-H1437 to NCI-H1755, the relative viability rises from 0.212 to 0.291.

First: NCI-H2023
Second: HCC-15
The relative viability of the first is lower: 0.0873 for the first, 0.179 for the second.

Compared with NCI-H1793, PC-14 is lower in relative viability: 0.175 for the first, 0.0205 for the second.

Going from EKVX to LC-2-ad, the relative viability falls from 0.28 to 0.177.

Compared with NCI-H1944, NCI-H1975 is higher in relative viability: 0.142 for the first, 0.168 for the second.

Going from RERF-LC-KJ to PC-3 [JPC-3], the relative viability rises from 0.213 to 0.24.
